Experiments:
JAK2 = JAK2 (Homo sapiens, UniProt O60674); assay: Cell-based tyrosine phosphorylation of Jak kinases (IP/immunoblot); design: endogenous in cells; host or cells: DU145 and CWR22Pc; details: 6 µM, 6 h
From the text: (§1) Figure 5 Both IST5 and IST5-M suppress dimerization of Stat5 with similar efficacies in prostate cancer cells. (A), IST5 and IST5-M inhibit equally potently dimerization of Stat5 in native-gel-based Stat5 dimerization assay. CWR22Rv1 cells were transfected with STAT5A-eYFP (Stat5 wild type), STAT5A-N642H-eYFP (constitutive activated Stat5 by N642H mutation, as a positive control) or STAT3-eYFP (Stat3 wild type, as a negative control) constructs for 3 days. CWR22Rv1 cells were serum-starved for 16 h, pretreated with vanadate (1 mM) for 2 h, followed by treatment with vehicle, IST5 and IST5-M (1 µM) for 6 h and stimulation with Prl (10 nM) for 1 h. Dimerization of Stat5 was analyzed by detection of the eYFP fluorescence of the native Coomassie gel. (B), IST5 and IST5-M inhibited cytokine-induced dimerization of Stat5 with high efficacy in PC cells. PC-3 cells were co-transfected with pCMV-3Flag-Stat5a, pCMV-3Myc-Stat5a, and pPrlR plasmids. Cells were serum-starved for 16 h, pretreated with IST5, IST5-M or vehicle at indicated concentrations for 2 h, followed by stimulation with Prl (10 nM) for 30 min. Anti-MYC mAb was utilized to immunoprecipitate the MYC-tagged Stat5a and blotted with anti-FLAG mAb or anti-MYC mAb, as indicated. […] (C), densitometric analyses of the Stat5 dimerization data based on co-immunoprecipitations and immunoblotting in (B). […] Prostate cancer cells were treated with IST5 (6 µM) or vehicle for 6 h. Jak1, Jak2, Jak3 and Tyk2 were immunoprecipitated and blotted with anti-phospho-tyrosine, Jak1, Jak2, Jak3 and Tyk2 antibodies. Whole cell lysates (WCL) were immunoblotted for actin. (E), differences in posttranslational modifications were detected between native and recombinant STAT5a using mass spectrometry. Native STAT5a from CWR22Rv1 cells and recombinant STAT5a from E. coli were gel-purified, digested using trypsin, and analyzed by bottom-up mass spectrometry. Native full-length STAT5a (blue) is show with recombinant STAT5A highlighted (red). Sites of acetylation and phosphorylation from the respective sources are noted including two previously published sites of phosphorylation (asterisk).
(§2) Given that IST5 suppresses phosphorylation of Stat5 in PC cells, it is possible that IST5 inhibits the kinase(s) responsible for Stat5 phosphorylation and activation in PC cells. To evaluate if IST5 affects kinase activity in cancer cells, we tested kinase inhibitory activity of IST5 in two custom-tailored panels including 54 relevant kinases (Table 1), including Jak1, Jak2, Jak3, Tyk2, Abl1, Abl2, Lck, Fyn, Src and TrkB/C. In addition, we further tested if IST5 inhibits tyrosine phosphorylation of Jak1, Jak2, Jak3 or Tyk2 using a cell-based assay (Figure 5D), where phosphorylation of the kinase is indicative of enzymatic kinase activity. DU145 and CWR22Rv1 cells were treated with IST5 (6 µM) for 6 h followed by immunoprecipitation of Jak1, Jak2, Jak3 and Tyk2 and immunoblotting with anti-phospho-tyrosine antibody. […] Collectively, these findings indicate that the inhibitory effect of IST5 on Stat5 phosphorylation in cancer cells is not due to inhibition of Jak2 or other key kinases including Jak1, Jak3, Tyk2, Src, Lck, Fyn, TrkB/C, Abl1 or Abl2 (Table 1, Figure 5D).
(§3) Cell pellets were solubilized in the lysis buffer (10 mM Tris-HCl (pH 7.6), 5 mM EDTA, 50 mM sodium chloride, 30 mM sodium pyrophosphate, 50 mM sodium fluoride, 1 mM sodium orthovanadate, 1% Triton X-100, 1 mM phenylmethylsulfonyl fluoride, 5 µg/mL aprotinin, 1 µg/mL pepstatin A and 2 µg/mL leupeptin), and protein concentrations of clarified cell lysates were determined by a simplified Bradford method (Bio-Rad, Hercules, CA, USA). The whole cell lysates were immunoprecipitated with polyclonal antibodies (Table S1) followed by incubation with protein A-Sepharose beads (GE Healthcare, Chicago, IL, USA). […]

TYK2 = TYK2 (Homo sapiens, UniProt P29597); assay: as above; design: endogenous in cells; host or cells: DU145 and CWR22Pc; details: 6 µM, 6 h
From the text: as §1, §2, §3

TYK2, sequence (P29597 whole entry): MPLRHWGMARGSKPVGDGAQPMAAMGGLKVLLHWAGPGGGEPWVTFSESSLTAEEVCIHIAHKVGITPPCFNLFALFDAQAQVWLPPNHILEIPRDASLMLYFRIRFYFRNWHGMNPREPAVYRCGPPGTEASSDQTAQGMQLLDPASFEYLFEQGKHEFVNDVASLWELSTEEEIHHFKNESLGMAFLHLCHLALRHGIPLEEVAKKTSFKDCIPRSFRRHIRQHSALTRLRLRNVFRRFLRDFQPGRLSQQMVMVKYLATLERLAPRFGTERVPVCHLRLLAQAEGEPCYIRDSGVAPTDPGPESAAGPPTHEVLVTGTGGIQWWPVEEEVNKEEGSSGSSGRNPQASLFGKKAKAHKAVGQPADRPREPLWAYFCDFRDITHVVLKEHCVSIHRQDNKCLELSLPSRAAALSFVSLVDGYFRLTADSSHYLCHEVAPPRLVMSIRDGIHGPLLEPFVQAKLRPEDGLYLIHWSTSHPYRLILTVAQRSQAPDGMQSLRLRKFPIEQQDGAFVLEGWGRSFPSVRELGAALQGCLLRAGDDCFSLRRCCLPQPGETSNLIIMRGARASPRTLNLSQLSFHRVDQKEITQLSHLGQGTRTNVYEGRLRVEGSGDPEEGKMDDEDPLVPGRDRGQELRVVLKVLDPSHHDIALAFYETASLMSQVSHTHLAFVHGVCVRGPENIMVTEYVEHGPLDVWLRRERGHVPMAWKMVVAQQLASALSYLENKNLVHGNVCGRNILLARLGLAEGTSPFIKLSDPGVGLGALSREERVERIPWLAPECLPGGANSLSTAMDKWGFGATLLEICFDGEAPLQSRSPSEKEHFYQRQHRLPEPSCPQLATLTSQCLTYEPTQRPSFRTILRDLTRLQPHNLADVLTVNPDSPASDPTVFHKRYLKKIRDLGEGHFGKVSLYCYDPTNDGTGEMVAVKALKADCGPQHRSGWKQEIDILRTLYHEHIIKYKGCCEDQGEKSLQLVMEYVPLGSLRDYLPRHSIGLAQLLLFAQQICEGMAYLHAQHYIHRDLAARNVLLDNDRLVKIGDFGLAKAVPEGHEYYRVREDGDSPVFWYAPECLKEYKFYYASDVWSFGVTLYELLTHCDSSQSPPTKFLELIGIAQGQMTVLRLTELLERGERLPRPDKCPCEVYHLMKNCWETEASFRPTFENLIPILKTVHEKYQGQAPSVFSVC
JAK2, sequence (O60674 whole entry): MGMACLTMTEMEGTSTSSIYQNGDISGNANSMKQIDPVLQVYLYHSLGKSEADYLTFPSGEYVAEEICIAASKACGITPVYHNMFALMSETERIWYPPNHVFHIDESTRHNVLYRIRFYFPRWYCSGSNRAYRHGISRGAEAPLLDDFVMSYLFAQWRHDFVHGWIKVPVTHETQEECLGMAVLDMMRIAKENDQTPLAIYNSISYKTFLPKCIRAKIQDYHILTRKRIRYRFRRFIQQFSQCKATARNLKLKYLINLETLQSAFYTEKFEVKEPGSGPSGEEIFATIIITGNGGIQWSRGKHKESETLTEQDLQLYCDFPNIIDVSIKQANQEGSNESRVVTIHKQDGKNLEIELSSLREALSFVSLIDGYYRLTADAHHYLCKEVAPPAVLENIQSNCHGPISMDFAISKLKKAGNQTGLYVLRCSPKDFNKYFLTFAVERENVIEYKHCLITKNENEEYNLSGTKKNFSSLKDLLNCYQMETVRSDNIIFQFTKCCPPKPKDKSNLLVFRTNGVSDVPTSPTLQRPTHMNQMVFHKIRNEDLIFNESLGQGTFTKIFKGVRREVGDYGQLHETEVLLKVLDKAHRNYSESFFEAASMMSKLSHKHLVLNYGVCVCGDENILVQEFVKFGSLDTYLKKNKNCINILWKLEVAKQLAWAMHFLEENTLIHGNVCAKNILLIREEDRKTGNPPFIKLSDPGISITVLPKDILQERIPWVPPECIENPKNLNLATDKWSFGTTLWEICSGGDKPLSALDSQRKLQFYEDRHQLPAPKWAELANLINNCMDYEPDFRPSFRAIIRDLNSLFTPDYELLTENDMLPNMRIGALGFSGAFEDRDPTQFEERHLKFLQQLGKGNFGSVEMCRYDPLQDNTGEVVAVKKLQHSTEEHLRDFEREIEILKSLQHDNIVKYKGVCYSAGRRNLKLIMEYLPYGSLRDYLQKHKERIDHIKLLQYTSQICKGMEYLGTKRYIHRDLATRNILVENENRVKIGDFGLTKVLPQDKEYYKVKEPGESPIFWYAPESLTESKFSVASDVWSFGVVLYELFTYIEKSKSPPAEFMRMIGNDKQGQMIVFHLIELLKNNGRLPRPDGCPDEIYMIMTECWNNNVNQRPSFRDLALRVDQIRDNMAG

O=P(O)(O)OCC1OC(n2cnc3c(NCc4ccccc4)ncnc32)C(O)C1O (stereo not shown) [IST5]
did not alter: phosphorylation of Jak2 (JAK2; CWR22Pc cells) | phosphorylation of Jak2 (JAK2; DU145 cells) | phosphorylation of Tyk2 (TYK2; CWR22Pc cells) | phosphorylation of Tyk2 (TYK2; DU145 cells)

Source: paper PMC7724566, “Prospects for Clinical Development of Stat5 Inhibitor IST5-002: High Transcriptomic Specificity in Prostate Cancer and Low Toxicity In Vivo” (Cancers, 2020)
